Assay results: ChEMBL document CHEMBL1201862, “PubChem BioAssay data set” (2004)
Activity calls are given as the source filed them.

How the values were obtained:
[1] = Counterscreen for activators of the function of SWI/SNF related, matrix associated, actin dependent regulator of chromatin, subfamily a, member 2 (SMARCA2, BRM): Luminescence-based cell-based high throughput dose response assay to identify non-selective compounds using the VP16 reporter assay.; type: functional
[2] = biological target: SWI/SNF-related matrix-associated actin-dependent regulator of chromatin subfamily A member 2 (Homo sapiens, UniProt P51531); assay: Luminescence-based cell-based high throughput dose response assay to identify activators of the function of SWI/SNF related, matrix associated, actin dependent regulator of chromatin, subfamily a, member 2 (SMARCA2, BRM).; type: functional
[3] = system: HeLa; assay: viability loss in HeLa cells – cell-based, ATP luminescence, cherry-pick samples, cytotoxicity control, dose response (AID 687004); type: functional; settings: Homo sapiens
[4] = biological target: Hepatocyte nuclear factor 4-alpha (Homo sapiens, UniProt P41235); type: functional, cell-based;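 also: biochemical luminescence-based dose-response counterscreen measuring inhibition of HNF4 dimerization, run alongside a screen for blockers of ABHD5–perilipin-5 interaction; split luciferase complementation of HNF4 fusion proteins in cell lysate measuring dimerization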
[5] = blockers of bursicon-stimulated LGR2 cAMP reporter – cell-based, HEK293, CRE-luciferase reporter, cherry pick, set 2, dose response (AID 743343); type: functional;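 also: transfected cells were stimulated with diluted bursicon conditioned medium after compound addition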
[6] = A549 cell cytotoxicity, dose response, cytotoxicity control, plate reader, cherry-pick, antagonist series (AID 743412); type: functional, cell-based
[7] = viability loss in HEK293 cells – cell-based, plate reader, cherry-picked samples, cytotoxicity control, dose response (AID 743446); type: functional
[8] = biological target: T1, DNA repair protein RAD52 homolog (Homo sapiens, UniProt P43351); type: functional, biochemical
T1 sequence (P43351 whole entry): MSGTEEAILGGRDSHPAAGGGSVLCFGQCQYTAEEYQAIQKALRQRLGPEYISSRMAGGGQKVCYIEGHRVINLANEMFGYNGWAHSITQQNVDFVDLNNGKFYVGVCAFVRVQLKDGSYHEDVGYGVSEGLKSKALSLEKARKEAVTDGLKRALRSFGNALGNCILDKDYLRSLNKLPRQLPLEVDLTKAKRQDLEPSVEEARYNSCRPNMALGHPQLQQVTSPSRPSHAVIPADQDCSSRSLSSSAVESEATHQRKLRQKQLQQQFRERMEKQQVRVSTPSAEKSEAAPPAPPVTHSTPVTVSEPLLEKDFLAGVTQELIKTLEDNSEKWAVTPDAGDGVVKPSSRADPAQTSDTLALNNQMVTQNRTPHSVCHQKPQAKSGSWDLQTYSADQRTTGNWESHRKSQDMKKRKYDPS

[9] = system: INS1; assay: INS-1E survival protection against cytokine death – cell-based, luminescence, retest, dose response (AID 449756); type: functional; settings: Rattus norvegicus;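 also: cell death triggered by IL-1 beta plus TNF-alpha plus IFN-gamma mixture; protective hits raise ATP signal compared with cytokine alone wells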
[10] = toxicity toward HepG2 liver cells – cell-based, plate reader, cherry-pick, antagonist series, cytotoxicity control, dose response (AID 743416); type: functional
[11] = blockade of melanocortin 4 receptor signaling – cell-based, plate reader, cherry pick, counter-screen for LGR2 antagonist project, dose response (AID 743444); type: functional;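 also: transfected HEK 293 cells stimulated with alpha-MSH peptide; potency of inhibitors of the alpha-MSH evoked signal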
[12] = biological target: Beta-lactamase (Salmonella choleraesuis (strain SC-B67), UniProt Q5J463)
[13] = biological target: Beta-lactamase (Pseudomonas aeruginosa, UniProt Q79MP6);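 also: biochemical dose-response test of metallo-beta-lactamase enzyme inhibition, read out by epi-absorbance; purified recombinant IMP-1 metallo-beta-lactamase with nitrocefin as substrate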
[14] = biological target: 5-hydroxytryptamine receptor 5A (Homo sapiens, UniProt P47898); assay: Counterscreen for agonists of OPRM1-OPRD1 heterodimerization: luminescence-based cell-based high throughput dose response assay to identify agonists of 5-hydroxytryptamine (serotonin) 5A receptor (HTR5A). [Related pubchem assays (depositor defined):AID504326, AID504355, AID504692, AID504904, AID504905]; type: functional
[15] = biological target: Mu-type opioid receptor (Homo sapiens, UniProt P35372); assay: (§1) Counterscreen for agonists of heterodimerization of the mu 1 (OPRM1) and delta 1 (OPRD1) opioid receptors: Luminescence-based cell-based high throughput dose response assay to identify agonists of OPRM1 homodimerization.; type: functional
[16] = biological target: Delta-type opioid receptor (Homo sapiens, UniProt P41143); assay: as §1, with “of OPRD1” for “of OPRM1”, “homodimerization. [Related pubchem assays (depositor defined):AID504326, AID504355, AID504692, AID504904, AID504905]” for “homodimerization.”; type: functional
[17] = biological target: T2, Corticotropin-releasing factor receptor 2/Corticotropin-releasing factor-binding protein (Homo sapiens, UniProt P24387+Q13324); assay: activators of CRF receptor 2 with binding protein – uHTS hits, confirmation (AID 602473); type: functional; settings: read-out: EC50_Mean
T2 sequence (Q13324 whole entry): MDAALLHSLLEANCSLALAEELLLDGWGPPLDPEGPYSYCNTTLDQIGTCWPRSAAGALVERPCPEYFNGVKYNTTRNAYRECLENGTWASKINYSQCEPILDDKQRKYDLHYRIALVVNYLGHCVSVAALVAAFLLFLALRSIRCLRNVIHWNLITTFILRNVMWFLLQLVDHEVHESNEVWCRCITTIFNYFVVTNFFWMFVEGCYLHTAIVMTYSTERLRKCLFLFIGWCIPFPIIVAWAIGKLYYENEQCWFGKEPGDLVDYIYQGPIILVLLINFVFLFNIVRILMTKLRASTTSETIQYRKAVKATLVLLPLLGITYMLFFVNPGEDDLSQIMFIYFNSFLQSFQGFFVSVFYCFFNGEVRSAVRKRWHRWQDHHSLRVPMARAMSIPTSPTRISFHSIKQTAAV
T2 sequence (P24387 whole entry): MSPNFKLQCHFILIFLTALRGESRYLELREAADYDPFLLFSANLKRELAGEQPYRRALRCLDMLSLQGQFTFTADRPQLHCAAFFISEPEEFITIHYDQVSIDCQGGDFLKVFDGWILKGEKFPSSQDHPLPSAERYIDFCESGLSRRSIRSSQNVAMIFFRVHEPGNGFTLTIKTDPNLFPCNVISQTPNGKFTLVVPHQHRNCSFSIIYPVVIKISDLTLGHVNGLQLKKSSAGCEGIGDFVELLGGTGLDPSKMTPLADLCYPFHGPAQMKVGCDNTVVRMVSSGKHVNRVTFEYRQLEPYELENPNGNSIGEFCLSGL

[18] = biological target: T2, Corticotropin-releasing factor receptor 2/Corticotropin-releasing factor-binding protein; assay: Dose Response confirmation of uHTS hits for small molecule antagonists of the CRF-binding protein and CRF-R2 receptor complex.; type: functional; settings: read-out: IC50_Mean
[19] = blockers of CRF-binding protein–CRF-R2 complex – cell-based, uHTS hits, 384-well, dose response (AID 651639); type: functional, Homo sapiens; settings: read-out: IC50_Mean
[20] = biological target: DNA repair and recombination protein RAD54-like (Homo sapiens, UniProt Q92698); assay: RAD54 Holliday junction migration blockers – biochemical, fluorescence, cherry-picked samples, dose series, confirmation (AID 651657); type: functional
[21] = viability loss in HeLa cells – cytotoxicity control for MgcRacGAP inhibitor project, dose response (AID 624300); type: functional
[22] = biological target: T3, Rac GTPase-activating protein 1 (Homo sapiens, UniProt Q9H0H5); assay: blockers of MgcRacGAP-driven Rac1 GTP hydrolysis – biochemical, ADP Hunter fluorescence, primary and confirmatory, confirmation (AID 624330); type: functional
T3 sequence (Q9H0H5 whole entry): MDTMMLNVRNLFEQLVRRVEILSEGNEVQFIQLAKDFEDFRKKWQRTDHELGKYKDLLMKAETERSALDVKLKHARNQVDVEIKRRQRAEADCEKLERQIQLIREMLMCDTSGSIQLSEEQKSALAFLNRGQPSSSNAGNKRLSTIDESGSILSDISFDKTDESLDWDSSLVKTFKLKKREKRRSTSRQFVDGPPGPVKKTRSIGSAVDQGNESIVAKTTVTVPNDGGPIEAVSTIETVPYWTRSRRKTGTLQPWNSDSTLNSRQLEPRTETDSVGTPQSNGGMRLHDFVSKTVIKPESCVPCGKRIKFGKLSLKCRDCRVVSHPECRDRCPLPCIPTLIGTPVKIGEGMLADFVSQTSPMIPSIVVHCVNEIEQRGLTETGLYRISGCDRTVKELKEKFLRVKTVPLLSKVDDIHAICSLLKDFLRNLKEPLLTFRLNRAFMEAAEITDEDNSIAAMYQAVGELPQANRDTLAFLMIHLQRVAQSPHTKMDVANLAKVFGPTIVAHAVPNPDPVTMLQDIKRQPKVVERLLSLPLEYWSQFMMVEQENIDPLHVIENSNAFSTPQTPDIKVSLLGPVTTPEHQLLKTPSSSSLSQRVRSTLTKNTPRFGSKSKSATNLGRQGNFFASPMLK

[23] = system: HeLa; assay: ATP-based viability loss in HeLa cells – cell-based, CellTiter-Glo luminescence, cherry-pick samples, cytotoxicity control for MITF activator project, dose response (AID 540259); type: functional; settings: Homo sapiens

Chain of Hepatocyte nuclear factor 4-alpha (P41235 whole entry, the tested form may be a part): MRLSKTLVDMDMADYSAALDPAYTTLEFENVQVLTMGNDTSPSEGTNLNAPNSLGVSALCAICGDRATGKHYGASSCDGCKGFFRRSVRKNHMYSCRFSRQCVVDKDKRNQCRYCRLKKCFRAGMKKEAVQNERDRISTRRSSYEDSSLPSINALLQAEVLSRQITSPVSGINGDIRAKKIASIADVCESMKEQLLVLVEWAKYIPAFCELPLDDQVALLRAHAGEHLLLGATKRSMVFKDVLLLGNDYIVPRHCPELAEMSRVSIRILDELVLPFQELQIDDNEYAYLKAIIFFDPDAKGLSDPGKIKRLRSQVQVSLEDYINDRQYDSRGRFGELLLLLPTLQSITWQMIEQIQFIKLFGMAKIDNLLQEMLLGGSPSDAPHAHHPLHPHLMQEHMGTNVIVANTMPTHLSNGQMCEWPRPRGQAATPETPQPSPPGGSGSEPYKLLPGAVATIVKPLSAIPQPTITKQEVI
Chain of SWI/SNF-related matrix-associated actin-dependent regulator of chromatin subfamily A member 2 (P51531 whole entry): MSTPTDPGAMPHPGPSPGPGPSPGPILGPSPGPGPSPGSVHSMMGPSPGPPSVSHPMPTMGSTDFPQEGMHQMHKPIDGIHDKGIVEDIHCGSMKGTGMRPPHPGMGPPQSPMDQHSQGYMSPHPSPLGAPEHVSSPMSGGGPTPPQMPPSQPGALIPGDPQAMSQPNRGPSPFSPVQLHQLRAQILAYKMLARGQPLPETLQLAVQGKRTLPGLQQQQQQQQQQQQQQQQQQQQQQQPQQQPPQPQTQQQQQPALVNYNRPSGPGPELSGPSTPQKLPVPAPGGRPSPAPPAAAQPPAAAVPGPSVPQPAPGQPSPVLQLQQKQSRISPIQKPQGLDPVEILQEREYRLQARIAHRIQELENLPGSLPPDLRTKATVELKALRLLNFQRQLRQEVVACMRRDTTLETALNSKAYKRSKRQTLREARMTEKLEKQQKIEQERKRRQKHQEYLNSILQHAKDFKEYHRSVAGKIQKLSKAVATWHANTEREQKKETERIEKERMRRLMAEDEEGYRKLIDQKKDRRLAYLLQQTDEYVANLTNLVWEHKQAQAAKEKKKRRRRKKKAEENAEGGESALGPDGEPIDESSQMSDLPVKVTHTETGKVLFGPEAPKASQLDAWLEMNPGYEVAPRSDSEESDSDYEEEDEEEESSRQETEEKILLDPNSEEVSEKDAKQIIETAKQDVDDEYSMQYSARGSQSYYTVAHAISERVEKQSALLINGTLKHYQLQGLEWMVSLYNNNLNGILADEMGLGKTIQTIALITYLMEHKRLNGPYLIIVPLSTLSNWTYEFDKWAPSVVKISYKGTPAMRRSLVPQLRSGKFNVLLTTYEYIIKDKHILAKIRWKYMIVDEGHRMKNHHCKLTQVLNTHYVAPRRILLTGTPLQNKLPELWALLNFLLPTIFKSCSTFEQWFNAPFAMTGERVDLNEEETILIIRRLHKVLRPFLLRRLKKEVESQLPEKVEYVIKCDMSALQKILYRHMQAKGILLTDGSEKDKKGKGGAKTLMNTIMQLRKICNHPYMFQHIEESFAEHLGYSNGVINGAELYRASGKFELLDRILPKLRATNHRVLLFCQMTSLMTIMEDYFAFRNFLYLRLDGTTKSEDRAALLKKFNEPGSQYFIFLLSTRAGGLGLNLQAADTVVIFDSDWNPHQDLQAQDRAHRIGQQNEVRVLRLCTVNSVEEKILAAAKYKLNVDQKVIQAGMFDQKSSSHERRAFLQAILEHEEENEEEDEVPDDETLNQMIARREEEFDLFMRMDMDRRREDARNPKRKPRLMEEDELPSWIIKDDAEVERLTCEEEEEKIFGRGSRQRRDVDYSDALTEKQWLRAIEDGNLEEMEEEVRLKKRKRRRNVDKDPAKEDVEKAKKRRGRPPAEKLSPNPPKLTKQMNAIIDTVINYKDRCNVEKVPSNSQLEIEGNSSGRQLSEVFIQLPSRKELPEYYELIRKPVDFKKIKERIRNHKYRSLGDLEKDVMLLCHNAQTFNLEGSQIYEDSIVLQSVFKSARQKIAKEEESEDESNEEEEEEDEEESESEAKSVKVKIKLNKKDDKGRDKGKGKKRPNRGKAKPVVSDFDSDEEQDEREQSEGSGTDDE
Chain of Beta-lactamase (Pseudomonas aeruginosa, UniProt Q79MP6) (Q79MP6 whole entry): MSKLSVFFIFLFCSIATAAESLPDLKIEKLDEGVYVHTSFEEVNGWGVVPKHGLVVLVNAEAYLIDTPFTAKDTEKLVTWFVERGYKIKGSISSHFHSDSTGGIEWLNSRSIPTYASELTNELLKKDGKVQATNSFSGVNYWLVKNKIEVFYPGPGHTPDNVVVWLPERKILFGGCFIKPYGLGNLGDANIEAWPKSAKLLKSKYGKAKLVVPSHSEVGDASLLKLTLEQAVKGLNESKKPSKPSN
Chain of Delta-type opioid receptor (P41143 whole entry): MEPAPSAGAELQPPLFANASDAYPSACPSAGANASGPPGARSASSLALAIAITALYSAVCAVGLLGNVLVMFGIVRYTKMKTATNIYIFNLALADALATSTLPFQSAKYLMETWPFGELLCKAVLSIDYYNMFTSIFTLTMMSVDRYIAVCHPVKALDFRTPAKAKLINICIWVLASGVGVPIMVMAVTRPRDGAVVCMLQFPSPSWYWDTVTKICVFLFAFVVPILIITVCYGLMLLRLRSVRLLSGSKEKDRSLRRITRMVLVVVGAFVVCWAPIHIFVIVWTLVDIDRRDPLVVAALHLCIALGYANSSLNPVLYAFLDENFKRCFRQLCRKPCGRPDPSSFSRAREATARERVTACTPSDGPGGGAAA
Chain of Beta-lactamase (Salmonella choleraesuis (strain SC-B67), UniProt Q5J463) (Q5J463 whole entry): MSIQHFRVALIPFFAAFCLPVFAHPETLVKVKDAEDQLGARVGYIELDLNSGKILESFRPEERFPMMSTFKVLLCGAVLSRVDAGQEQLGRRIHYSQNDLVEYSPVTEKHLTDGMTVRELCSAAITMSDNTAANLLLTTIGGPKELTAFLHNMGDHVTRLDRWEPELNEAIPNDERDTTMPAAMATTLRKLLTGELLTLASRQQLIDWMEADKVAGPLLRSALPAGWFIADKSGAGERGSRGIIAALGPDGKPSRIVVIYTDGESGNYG
Chain of Mu-type opioid receptor (P35372 whole entry): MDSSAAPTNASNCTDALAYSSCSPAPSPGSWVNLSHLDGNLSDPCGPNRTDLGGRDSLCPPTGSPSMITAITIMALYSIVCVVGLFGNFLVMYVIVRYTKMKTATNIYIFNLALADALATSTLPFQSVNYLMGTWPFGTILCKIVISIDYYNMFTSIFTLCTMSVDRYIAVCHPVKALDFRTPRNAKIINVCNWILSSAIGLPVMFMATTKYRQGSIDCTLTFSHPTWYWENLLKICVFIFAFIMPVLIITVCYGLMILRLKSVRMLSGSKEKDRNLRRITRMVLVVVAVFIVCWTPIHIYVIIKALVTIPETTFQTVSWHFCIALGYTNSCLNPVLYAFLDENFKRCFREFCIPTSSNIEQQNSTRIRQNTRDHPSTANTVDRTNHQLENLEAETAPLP
Chain of DNA repair and recombination protein RAD54-like (Q92698 whole entry): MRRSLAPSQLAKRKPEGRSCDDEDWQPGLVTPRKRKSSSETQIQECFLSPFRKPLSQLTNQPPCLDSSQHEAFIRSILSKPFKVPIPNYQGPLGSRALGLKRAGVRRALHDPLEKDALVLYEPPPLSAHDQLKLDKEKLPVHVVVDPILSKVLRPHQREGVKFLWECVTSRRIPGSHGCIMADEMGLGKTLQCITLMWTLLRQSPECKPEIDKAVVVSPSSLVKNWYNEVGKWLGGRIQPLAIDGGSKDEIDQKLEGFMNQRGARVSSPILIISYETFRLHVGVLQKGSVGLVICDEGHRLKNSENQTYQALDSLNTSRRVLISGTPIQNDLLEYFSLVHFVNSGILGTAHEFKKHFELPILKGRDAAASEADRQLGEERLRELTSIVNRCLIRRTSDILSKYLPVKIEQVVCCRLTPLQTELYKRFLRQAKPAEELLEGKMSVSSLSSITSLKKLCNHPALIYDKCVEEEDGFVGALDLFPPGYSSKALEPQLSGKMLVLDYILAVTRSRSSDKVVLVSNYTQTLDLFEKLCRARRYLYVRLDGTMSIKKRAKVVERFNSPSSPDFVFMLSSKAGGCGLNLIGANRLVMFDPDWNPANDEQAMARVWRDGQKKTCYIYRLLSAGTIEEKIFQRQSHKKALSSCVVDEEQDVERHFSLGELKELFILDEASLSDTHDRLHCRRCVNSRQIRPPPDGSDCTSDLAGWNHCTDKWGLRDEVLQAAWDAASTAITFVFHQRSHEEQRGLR
Chain of 5-hydroxytryptamine receptor 5A (P47898 whole entry): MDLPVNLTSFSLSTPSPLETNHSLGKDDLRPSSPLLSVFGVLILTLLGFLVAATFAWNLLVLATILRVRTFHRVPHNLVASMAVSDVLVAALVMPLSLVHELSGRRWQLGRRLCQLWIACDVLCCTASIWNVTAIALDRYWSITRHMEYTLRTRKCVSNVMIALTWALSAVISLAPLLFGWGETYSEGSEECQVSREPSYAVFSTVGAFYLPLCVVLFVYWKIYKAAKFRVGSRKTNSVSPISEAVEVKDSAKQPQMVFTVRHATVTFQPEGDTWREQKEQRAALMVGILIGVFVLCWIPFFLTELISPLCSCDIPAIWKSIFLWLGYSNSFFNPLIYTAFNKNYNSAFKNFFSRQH

O=C(CN1CCCCC1)Nc1c2c(nc3ccccc13)N(c1ccccc1)CC2
EC50 [1]: > 91.2 µM (inactive)
EC50 [2]: > 91.2 µM (inactive)

CC(C)CC#Cc1ccc2c(c1)O[C@@H](CN(C)C(=O)C1CCC1)[C@@H](C)CN([C@H](C)CO)S2(=O)=O
AC50 [3]: > 52 µM (inactive)

CC(=O)Oc1ccc(C23c4ccccc4C2(OC(C)=O)c2cc(OC(C)=O)ccc23)cc1 (configuration not stated)
IC50 [4]: 5.5 µM (active)

CCCc1nc(C)c2c(=O)[nH]c(-c3cc(S(=O)(=O)N4CCN(CC)CC4)ccc3OCC)nn12
IC50 [4]: 25.1 µM (inactive)

c1ccc2c(NCCCN3CCOCC3)c3ccccc3nc2c1
AC50 [5]: 21 µM (active)
AC50 [6]: 3.28 µM (active)
AC50 [7]: 3.16 µM (active)
AC50 [8]: 1.06 µM (active)
EC50 [1]: > 91.2 µM (inactive)
AC50 [9]: 2.33 µM (active)
EC50 [2]: > 3.38 µM (active)
AC50 [10]: 3.54 µM (active)
AC50 [11]: 31.3 µM (active)

COc1ccc2c(Cl)c(C(=O)NCCCn3ccnc3)sc2c1Cl
IC50 [12]: > 59.6 µM (inactive)
IC50 [13]: > 59.6 µM (inactive)

Cc1ccc2c(Cl)c(Cc3ccccc3)c(=S)[nH]c2n1
EC50 [14]: > 92.5 µM (inactive)
EC50 [15]: > 92.5 µM (inactive)
EC50 [16]: > 92.5 µM (inactive)

Cc1ccc(S(=O)(=O)NC(=Nc2ccc([N+](=O)[O-])cc2[N+](=O)[O-])c2ccccc2)cc1
EC50 [17]: > 53 µM (inactive)
IC50 [18]: 9.98 µM (active)
IC50 [19]: > 20 µM (inactive)

COc1ccc(-c2cc3nc(NCCCN(C)C)n(C)c(=O)c3s2)cc1OC
AC50 [8]: 4.79 µM (active)
AC50 [20]: 11.5 µM (active)

COc1ccc(C(CNC(=O)c2cc3ccccc3cc2O)N2CCOCC2)cc1 (configuration not stated)
CC50 [21]: 100 µM (active)
IC50 [22]: 77 µM (active)

Cc1nc(NC(C)C)c2cnn(CCc3ccccc3)c2n1
AC50 [23]: 84.6 µM (active)
